Measurements: patent US20240190849A1, “AMINOPYRIMIDINE COMPOUNDS AND METHODS OF THEIR USE” (TYRA BIOSCIENCES, INC., priority 2021, published 2024)

What was measured:
[1] = test system: UM-UC-14 (Bladder Cancer), FGFR3(S249C); assay: Cancer cell viability assay (Cell Titer-Glo), UM-UC-14; assay type: cell-based; details: UMUC14, UM-UC-14 cells, 72 hours
Excerpt: (§1) RT112/84, UM-UC-14, SNU-16 and KG-1 Cancer Cell Line Cell Viability Assays
(§2) To detect the change of intracellular ATP by Cell Titer-Glo@ and to evaluate the inhibitory effect of the compounds on cancer cell lines by determining the in vitro IC50 value of the compounds.
(§3) Cell Titer-Glo@ 2.0 Luminescent cell viability assay reagent was purchased from Promega (Madison, WI). RT112/84, SNU-16, and KG-1 cell lines were purchased from American Type Culture Collection (Manassas, VA). UM-UC-14 cell line was purchased from Sigma (St. Louis, MO). RT112/84, UM-UC-14, SNU-16, and KG-1 cells were cultured in RPMI1640 media supplemented with 10% fetal bovine serum. Cultures were maintained at 37° C. in a humidified atmosphere of 5% CO2 and 95% air.
(§4) Cell Viability Assay Procedure: Cells were plated in 96-well clear bottom/white plates (Corning #3903) at 10,000 cells/well in 100 μl of media, incubated overnight. The next day, test compound DMSO stock solutions were made at 10 mM and 2 μM final concentration. Compounds were then added to cells in a 9-dose, […] dilution series starting at 30 μM with an HP 300e Digital Dispenser (each dose was applied in triplicate). DMSO was backfilled to each well up to 301 nL total volume of test compound+DMSO, and a total of 301 nL DMSO was added to a control/no test compound well in triplicate. The cells in cell culture plates were incubated with the compounds at 37° C. and 5% CO2 for 72 hours. Then 50 μl of Cell Titer Glo 2.0 reagent was added to each well of the cell culture plates. The contents were covered from light and mixed on an orbital shaker at room temperature for 10 min. Luminescence was recorded by a Synergy H1 Microplate Reader (Biotek, Winooski, VT). Cells were assessed as a percentage of DMSO only treated control cells. Curves were plotted and IC50 values were calculated using the GraphPad Prism 8 program based on a sigmoidal dose-response equation (4 parameter).

[2] = target: T1, FGFR3 (V555M) (Homo sapiens, UniProt P22607, V555M); assay: Kinase binding assay (kinase-tagged T7 phage, affinity beads, qPCR readout), FGFR3 (V555M); details: FGFR binding data
T1 construct: made in house; host or cells: E. coli derived from BL21, infected with T7 phage
Procedure, shortened: (§5)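 Competition binding: T7 phage-tagged kinases incubated with immobilized biotinylated ligand beads and test compound (11-point 3-fold series, 0.9% DMSO final) for 1 h at room temperature. Bound kinase eluted and quantified by qPCR. Kd from Hill equation fit, slope fixed at −1.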

[3] = target: T2, FGFR2 (Homo sapiens, UniProt P21802); assay: Kinase binding assay (kinase-tagged T7 phage, affinity beads, qPCR readout), FGFR2; details: FGFR binding data
T2 construct: made in house; host or cells: E. coli derived from BL21, infected with T7 phage
Procedure, shortened: as §5

[4] = target: T3, FGFR1 (Homo sapiens, UniProt P11362); assay: Kinase binding assay (kinase-tagged T7 phage, affinity beads, qPCR readout), FGFR1; details: FGFR binding data
T3 construct: made in house; host or cells: E. coli derived from BL21, infected with T7 phage
Procedure, shortened: as §5

[5] = target: T4, FGFR3 (Homo sapiens, UniProt P22607); assay: Kinase binding assay (kinase-tagged T7 phage, affinity beads, qPCR readout), FGFR3; details: FGFR binding data
T4 construct: made in house; host or cells: E. coli derived from BL21, infected with T7 phage
Procedure, shortened: as §5

[6] = test system: SNU-16 (Gastric Carcinoma), FGFR2 amplification; assay: Cancer cell viability assay (Cell Titer-Glo), SNU-16; assay type: cell-based; details: Homo sapiens, SNU-16 cells, 72 hours, read-out: SNU16 FGFR2 (IC50 nM)
Excerpt: as §1, §2, §3, §4

T4 sequence (P22607 23-806): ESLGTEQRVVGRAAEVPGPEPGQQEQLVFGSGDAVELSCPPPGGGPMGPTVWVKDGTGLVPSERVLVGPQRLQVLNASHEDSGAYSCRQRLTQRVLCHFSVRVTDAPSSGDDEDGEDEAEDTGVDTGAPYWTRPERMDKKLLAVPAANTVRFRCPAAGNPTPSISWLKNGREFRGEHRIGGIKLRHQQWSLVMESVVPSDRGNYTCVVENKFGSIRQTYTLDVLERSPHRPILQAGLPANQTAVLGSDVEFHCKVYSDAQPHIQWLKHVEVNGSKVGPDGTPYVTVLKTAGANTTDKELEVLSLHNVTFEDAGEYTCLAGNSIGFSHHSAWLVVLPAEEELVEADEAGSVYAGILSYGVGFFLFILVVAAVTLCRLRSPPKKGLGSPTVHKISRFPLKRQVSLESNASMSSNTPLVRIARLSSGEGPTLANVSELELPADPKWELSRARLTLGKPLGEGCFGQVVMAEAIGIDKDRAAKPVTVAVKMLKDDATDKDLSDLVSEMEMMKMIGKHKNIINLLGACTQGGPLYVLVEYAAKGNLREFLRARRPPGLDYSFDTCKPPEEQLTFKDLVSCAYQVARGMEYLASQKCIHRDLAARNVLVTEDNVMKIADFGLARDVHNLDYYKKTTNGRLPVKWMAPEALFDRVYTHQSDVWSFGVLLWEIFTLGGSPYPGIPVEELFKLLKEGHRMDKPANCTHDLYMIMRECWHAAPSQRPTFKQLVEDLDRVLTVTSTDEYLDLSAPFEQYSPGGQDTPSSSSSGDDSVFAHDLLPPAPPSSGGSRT
T3 sequence (P11362 22-822): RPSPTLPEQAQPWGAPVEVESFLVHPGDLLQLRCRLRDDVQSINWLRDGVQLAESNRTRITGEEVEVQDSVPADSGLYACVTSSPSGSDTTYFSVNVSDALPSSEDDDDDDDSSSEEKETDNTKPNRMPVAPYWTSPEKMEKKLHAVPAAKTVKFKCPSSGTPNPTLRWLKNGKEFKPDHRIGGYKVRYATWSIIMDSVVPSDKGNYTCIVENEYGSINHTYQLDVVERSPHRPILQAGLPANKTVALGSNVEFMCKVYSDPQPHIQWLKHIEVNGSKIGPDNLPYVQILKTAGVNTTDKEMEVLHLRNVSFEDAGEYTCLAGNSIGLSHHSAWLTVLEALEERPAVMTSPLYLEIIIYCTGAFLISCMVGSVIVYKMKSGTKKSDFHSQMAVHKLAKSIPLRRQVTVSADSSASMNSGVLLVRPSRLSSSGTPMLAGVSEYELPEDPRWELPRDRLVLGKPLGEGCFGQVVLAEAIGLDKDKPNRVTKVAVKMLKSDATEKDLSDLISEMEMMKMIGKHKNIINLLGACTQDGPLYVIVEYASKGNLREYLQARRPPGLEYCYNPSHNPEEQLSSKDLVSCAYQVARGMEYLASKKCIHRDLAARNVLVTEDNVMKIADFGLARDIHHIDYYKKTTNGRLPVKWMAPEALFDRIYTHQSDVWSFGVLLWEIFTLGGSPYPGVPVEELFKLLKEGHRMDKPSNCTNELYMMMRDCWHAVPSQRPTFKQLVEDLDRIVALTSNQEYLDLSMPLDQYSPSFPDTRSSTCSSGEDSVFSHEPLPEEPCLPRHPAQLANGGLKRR
T2 sequence (P21802 22-821): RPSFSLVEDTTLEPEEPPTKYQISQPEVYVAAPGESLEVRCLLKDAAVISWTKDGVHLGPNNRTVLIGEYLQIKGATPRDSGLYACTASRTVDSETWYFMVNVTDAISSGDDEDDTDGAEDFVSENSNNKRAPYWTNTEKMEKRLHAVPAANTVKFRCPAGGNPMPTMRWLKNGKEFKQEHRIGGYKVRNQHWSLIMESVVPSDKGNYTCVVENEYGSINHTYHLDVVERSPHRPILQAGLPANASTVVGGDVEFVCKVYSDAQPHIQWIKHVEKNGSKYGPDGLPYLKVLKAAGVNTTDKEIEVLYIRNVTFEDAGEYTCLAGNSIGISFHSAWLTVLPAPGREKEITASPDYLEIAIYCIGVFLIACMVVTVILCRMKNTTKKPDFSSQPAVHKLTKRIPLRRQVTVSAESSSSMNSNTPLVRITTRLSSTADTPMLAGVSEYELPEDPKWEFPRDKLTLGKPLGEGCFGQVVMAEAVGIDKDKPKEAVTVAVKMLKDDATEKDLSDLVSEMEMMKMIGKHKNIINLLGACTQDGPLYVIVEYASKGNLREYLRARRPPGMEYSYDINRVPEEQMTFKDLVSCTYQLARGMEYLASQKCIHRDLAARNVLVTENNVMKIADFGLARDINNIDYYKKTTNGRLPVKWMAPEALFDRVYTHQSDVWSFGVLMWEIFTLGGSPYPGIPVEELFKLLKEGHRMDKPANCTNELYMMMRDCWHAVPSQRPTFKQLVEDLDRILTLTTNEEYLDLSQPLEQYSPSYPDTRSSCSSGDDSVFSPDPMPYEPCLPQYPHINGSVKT
T1 sequence (P22607 23-806 V555M): as the sequence (P22607 23-806) above, with V533M counted along it

Row | IC50 [1] [nM] | Kd [2] [nM] | Kd [3] [nM] | Kd [4] [nM] | Kd [5] [nM] | IC50 [6] [nM] | SMILES
1 |  | 0.1 to 100 | 0.1 to 100 | 0.1 to 100 | 0.1 to 100 | 0.1 to 100 | C=CC(=O)Nc1ccc2c(c1)c(C)cn2-c1nc(Nc2cn(CC(C)(C)O)nc2C)ncc1F [Example 182, N-[1-[5-fluoro-2-[[1-(2-hydroxy-2-methyl-propyl)-3-methyl-pyrazol-4-yl]amino]pyrimidin-4-yl]-3-methyl-indol-5-yl]prop-2-enamide]
2 |  | 0.1 to 100 | 0.1 to 100 | 0.1 to 100 | 0.1 to 100 | 0.1 to 100 | C=CC(=O)Nc1ccc2c(c1)c(C)cn2-c1nc(Nc2cnn(CC(C)(C)O)c2C)ncc1F [Example 183, N-[1-[5-fluoro-2-[[1-(2-hydroxy-2-methyl-propyl)-5-methyl-pyrazol-4-yl]amino]pyrimidin-4-yl]-3-methyl-indol-5-yl]prop-2-enamide]
3 |  | 0.1 to 100 | 0.1 to 100 | 0.1 to 100 | 0.1 to 100 | 0.1 to 100 | C=CC(=O)Nc1ccc2c(-c3ccnc(Nc4cnn(C)c4)n3)cn(C)c2c1 [Example 201, N-[3-[2-[(1-methylpyrazol-4-yl)amino]pyrimidin-4-yl]-1-methyl-indol-6-yl]prop-2-enamide]
4 | 0.1 to 100 | 0.1 to 100 | 0.1 to 100 | 0.1 to 100 | 0.1 to 100 |  | C=CC(=O)Nc1ccc2c(c1)c(C)cn2-c1nc(Nc2cnn3c2CCC3)ncc1F [Example 207, N-[1-[2-(5,6-dihydro-4H-pyrrolo[1,2-b]pyrazol-3-ylamino)-5-fluoro-pyrimidin-4-yl]-3-methyl-indol-5-yl]prop-2-enamide]
5 |  | 0.1 to 100 | 0.1 to 100 | 0.1 to 100 | 0.1 to 100 | 0.1 to 100 | C=CC(=O)Nc1ccc2c(c1)c(C)cn2-c1nc(Nc2cnn(C3CCOCC3)c2)ncc1F [Example 208, N-[1-[5-fluoro-2-[(1-tetrahydropyran-4-ylpyrazol-4-yl)amino]pyrimidin-4-yl]-3-methyl-indol-5-yl]prop-2-enamide]
6 |  | 0.1 to 100 | 0.1 to 100 | 0.1 to 100 | 0.1 to 100 | 0.1 to 100 | C=CC(=O)Nc1ccc2c(c1)c(C)cn2-c1nc(Nc2cn(C[C@@H](C)O)nc2C)ncc1F [Example 214, N-[1-[5-fluoro-2-[[1-[(2R)-2-hydroxypropyl]-3-methyl-pyrazol-4-yl]amino]pyrimidin-4-yl]-3-methyl-indol-5-yl]prop-2-enamide]
7 |  | 0.1 to 100 | 0.1 to 100 | 0.1 to 100 | 0.1 to 100 | 0.1 to 100 | C=CC(=O)Nc1ccc2c(c1)c(C)cn2-c1nc(Nc2cnn(C3CCOC3)c2)ncc1F (stereo not drawn) [Example 215, N-[1-[5-fluoro-2-[(1-tetrahydrofuran-3-ylpyrazol-4-yl)amino]pyrimidin-4-yl]-3-methyl-indol-5-yl]prop-2-enamide]

Continued, molecule first:

Row | SMILES | IC50 [1] [nM] | Kd [2] [nM] | Kd [3] [nM] | Kd [4] [nM] | Kd [5] [nM] | IC50 [6] [nM]
8 | C=CC(=O)Nc1ccc2c(-c3nc(Nc4cnc5ccnn5c4)ncc3Cl)cn(C)c2c1 [Example 43, N-[3-[5-chloro-2-(pyrazolo[1,5-a]pyrimidin-6-ylamino)pyrimidin-4-yl]-1-methyl-indol-6-yl]prop-2-enamide] | 100 to 250 |  |  |  |  | 
9 | C=CC(=O)Nc1ccc2c(c1)c(C)nn2-c1nc(Nc2ccnn2C)ncc1F [Example 76, N-[1-[5-fluoro-2-[(2-methylpyrazol-3-yl)amino]pyrimidin-4-yl]-3-methyl-indazol-5-yl]prop-2-enamide] | 250 to 1000 | > 1000 | 250 to 1000 | > 1000 | 250 to 1000 | 
10 | C=CC(=O)Nc1ccc2c(c1)c(C)nn2-c1nc(Nc2ccnn2C)ncc1C [Example 77, N-[3-methyl-1-[5-methyl-2-[(2-methylpyrazol-3-yl)amino]pyrimidin-4-yl]indazol-5-yl]prop-2-enamide] | > 1000 | 250 to 1000 | > 1000 | > 1000 | 250 to 1000 | 
11 | C=CC(=O)Nc1cnc2c(c1)c(C)cn2-c1nc(Nc2ccnn2C)ncc1F [Example 80, N-[1-[5-fluoro-2-[(2-methylpyrazol-3-yl)amino]pyrimidin-4-yl]-3-methyl-pyrrolo[2,3-b]pyridin-5-yl]prop-2-enamide] | 0.1 to 100 | 0.1 to 100 | 0.1 to 100 | 0.1 to 100 | 0.1 to 100 | 
12 | C=CC(=O)Nc1ccc2c(-c3nc(Nc4cn(C)nc4C)ncc3F)cn(C)c2c1 [Example 154, N-[3-[2-[(1,3-dimethylpyrazol-4-yl)amino]-5-fluoro-pyrimidin-4-yl]-1-methyl-indol-6-yl]prop-2-enamide] |  | 0.1 to 100 | 0.1 to 100 | 250 to 1000 | 0.1 to 100 | 0.1 to 100
13 | C=CC(=O)Nc1ccc2c(c1)c(C)cn2-c1nc(Nc2cn(CC)nc2C)ncc1F [Example 156, N-[1-[2-[(1-ethyl-3-methyl-pyrazol-4-yl)amino]-5-fluoro-pyrimidin-4-yl]-3-methyl-indol-5-yl]prop-2-enamide] |  | 0.1 to 100 | 0.1 to 100 | 0.1 to 100 | 0.1 to 100 | 0.1 to 100
14 | C=CC(=O)Nc1ccc2c(c1)c(C)cn2-c1nc(Nc2cnn(CC(C)O)c2)ncc1F (stereo not drawn) [Example 158, N-[1-[5-fluoro-2-[[1-(2-hydroxypropyl)pyrazol-4-yl]amino]pyrimidin-4-yl]-3-methyl-indol-5-yl]prop-2-enamide] |  | 0.1 to 100 | 0.1 to 100 | 0.1 to 100 | 0.1 to 100 | 0.1 to 100
15 | C=CC(=O)Nc1ccc2c(c1)c(C)cn2-c1nc(Nc2cn(CC(F)F)nc2C)ncc1F [Example 164, N-[1-[2-[[1-(2,2-difluoroethyl)-3-methyl-pyrazol-4-yl]amino]-5-fluoro-pyrimidin-4-yl]-3-methyl-indol-5-yl]prop-2-enamide] |  | 0.1 to 100 | 0.1 to 100 | 0.1 to 100 | 0.1 to 100 | 0.1 to 100
16 | C=CC(=O)Nc1ccc2c(c1)c(C)cn2-c1nc(Nc2cn(CC(F)(F)F)nc2C)ncc1F [Example 165, N-[1-[5-fluoro-2-[[3-methyl-1-(2,2,2-trifluoroethyl)pyrazol-4-yl]amino]pyrimidin-4-yl]-3-methyl-indol-5-yl]prop-2-enamide] |  | 0.1 to 100 | 0.1 to 100 | 0.1 to 100 | 0.1 to 100 | 0.1 to 100
17 | C=CC(=O)Nc1ccc2c(c1)c(C)cn2-c1nc(Nc2cnn(CC3(O)CC3)c2)ncc1F [Example 175, N-[1-[5-fluoro-2-[[1-[(1-hydroxycyclopropyl)methyl]pyrazol-4-yl]amino]pyrimidin-4-yl]-3-methyl-indol-5-yl]prop-2-enamide] |  | 0.1 to 100 | 0.1 to 100 | 0.1 to 100 | 0.1 to 100 | 0.1 to 100
18 | C=CC(=O)Nc1ccc2c(c1)c(C)cn2-c1nc(Nc2cn(CCO)nc2C)ncc1F [Example 176, N-[1-[5-fluoro-2-[[1-(2-hydroxyethyl)-3-methyl-pyrazol-4-yl]amino]pyrimidin-4-yl]-3-methyl-indol-5-yl]prop-2-enamide] |  | 0.1 to 100 | 0.1 to 100 | 0.1 to 100 | 0.1 to 100 | 0.1 to 100
19 | C=CC(=O)Nc1ccc2c(-c3ccnc(Nc4cnn(C5CC5)c4)n3)cn(C)c2c1 [Example 178, N-[3-[2-[(1-cyclopropylpyrazol-4-yl)amino]pyrimidin-4-yl]-1-methyl-indol-6-yl]prop-2-enamide] |  | 0.1 to 100 | 0.1 to 100 | 0.1 to 100 | 0.1 to 100 | 0.1 to 100
20 | Cc1nn(C)cc1Nc1ncc(Cl)c(-n2cc(C)c3cc(NC(=O)/C=C/CN(C)C)cnc32)n1 [Example 180, (E)-N-[1-[5-chloro-2-[(1,3-dimethylpyrazol-4-yl)amino]pyrimidin-4-yl]-3-methyl-pyrrolo[2,3-b]pyridin-5-yl]-4-(dimethylamino)but-2-enamide] |  | 0.1 to 100 | 0.1 to 100 | 100 to 250 | 0.1 to 100 | 0.1 to 100
